Data as given in patent US12077503B2, “Substituted cyclic amides and their use as herbicides” (FMC CORPORATION, priority 2015, dated 2024).

Key:
Assay type in all cases: in vivo
corn (Zea mays) [1] = assay: Test G Post-Emergence Protocol; conditions: Zea mays, post-emergence, 312 h
Summary of the method: (§1)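 Sow in soil; grow 8 d (24/16 °C, 14 h light, 65% humidity); spray 15.625/62.5/250 g/ha in acetone:water 50:50 + 0.5% Tween 20; grow on, water twice daily; score damage 0–100 at 13 d.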

[2] = test system: velvetleaf (Abutilon theophrasti); assay: Test G Post-Emergence Protocol; conditions: Abutilon theophrasti, post-emergence, 312 h
Summary of the method: as §1

[3] = test system: redroot pigweed (Amaranthus retroflexus); assay: Test G Post-Emergence Protocol; conditions: Amaranthus retroflexus, post-emergence, 312 h
Summary of the method: as §1

[4] = test system: ivy-leaved morning glory (Ipomoea hederacea); assay: Test G Post-Emergence Protocol; conditions: Ipomoea, post-emergence, 312 h
Summary of the method: as §1

[5] = test system: barnyardgrass (Echinochloa crus-galli); assay: Test G Post-Emergence Protocol; conditions: Echinochloa crus-galli, post-emergence, 312 h
Summary of the method: as §1

[6] = test system: giant foxtail (Setaria faberi); assay: Test G Post-Emergence Protocol; conditions: Setaria faberi, post-emergence, 312 h
Summary of the method: as §1

corn (Zea mays) [7] = assay: Test G Pre-Emergence Protocol; conditions: Zea mays, pre-emergence, 312 h, evaluated after 13 days
Summary of the method: (§2)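 Pre-emergence spray, 15.625/62.5/250 g/ha, vehicle acetone:water 50:50 + 0.5% Tween 20, applied 1 d after sowing. Glasshouse 24/16° C, 14 h light, 65% RH, watered twice daily. Visual damage rating at 13 d, 0–100 scale.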

[8] = test system: velvetleaf (Abutilon theophrasti); assay: Test G Pre-Emergence Protocol; conditions: Abutilon theophrasti, pre-emergence, 312 h, evaluated after 13 days
Summary of the method: as §2

[9] = test system: redroot pigweed (Amaranthus retroflexus); assay: Test G Pre-Emergence Protocol; conditions: Amaranthus retroflexus, pre-emergence, 312 h, evaluated after 13 days
Summary of the method: as §2

[10] = test system: ivy-leaved morning glory (Ipomoea hederacea); assay: Test G Pre-Emergence Protocol; conditions: Ipomoea, pre-emergence, 312 h, evaluated after 13 days
Summary of the method: as §2

[11] = test system: barnyardgrass (Echinochloa crus-galli); assay: Test G Pre-Emergence Protocol; conditions: Echinochloa crus-galli, pre-emergence, 312 h, evaluated after 13 days
Summary of the method: as §2

[12] = test system: giant foxtail (Setaria faberi); assay: Test G Pre-Emergence Protocol; conditions: Setaria faberi, pre-emergence, 312 h, evaluated after 13 days
Summary of the method: as §2

SMILES: CN1C[C@H](c2ccc(C(F)(F)F)cc2)[C@@H](C(=O)Nc2ncccc2[N+](=O)[O-])C1=O (racemic) [Compound 1431]
- plant injury at 15.625 g/ha (corn (Zea mays) [1]; 15.625 g ai/ha, evaluated after 13 days (100=total damage to plant; 0=no damage to plant), read-out: Corn damage rating): 0%
- plant injury at 62.5 g/ha (corn (Zea mays) [1]; 62.5 g ai/ha, evaluated after 13 days, read-out: Corn damage rating (100=total damage to plant; 0=no damage to plant)): 0%
- plant injury at 250 g/ha (corn (Zea mays) [1]; 250 g ai/ha, evaluated after 13 days, read-out: damage to plant, Corn (100=total damage to plant; 0=no damage to plant)): 0%
- pest or weed control at 15.625 g/ha ([2]; 15.625 g ai/ha, evaluated after 13 days (100=total damage to plant; 0=no damage to plant), read-out: Velvetleaf damage rating): 0%
- pest or weed control at 62.5 g/ha ([2]; 62.5 g ai/ha, evaluated after 13 days, read-out: Velvetleaf damage rating (100=total damage to plant; 0=no damage to plant)): 0%
- pest or weed control at 250 g/ha ([2]; 250 g ai/ha, evaluated after 13 days, read-out: damage to plant, Velvetleaf (100=total damage to plant; 0=no damage to plant)): 10%
- pest or weed control at 15.625 g/ha ([3]; 15.625 g ai/ha, evaluated after 13 days (100=total damage to plant; 0=no damage to plant), read-out: Pigweed, Redroot damage rating): 0%
- pest or weed control at 62.5 g/ha ([3]; 62.5 g ai/ha, evaluated after 13 days, read-out: Pigweed, Redroot damage rating (100=total damage to plant; 0=no damage to plant)): 0%
- pest or weed control at 250 g/ha ([3]; 250 g ai/ha, evaluated after 13 days, read-out: damage to plant, Pigweed, Redroot (100=total damage to plant; 0=no damage to plant)): 40%
- pest or weed control at 15.625 g/ha ([4]; 15.625 g ai/ha, evaluated after 13 days (100=total damage to plant; 0=no damage to plant), read-out: Morningglory, Ivy-leaved damage rating): 0%
- pest or weed control at 62.5 g/ha ([4]; 62.5 g ai/ha, evaluated after 13 days, read-out: Morningglory, Ivy-leaved damage rating (100=total damage to plant; 0=no damage to plant)): 0%
- pest or weed control at 250 g/ha ([4]; 250 g ai/ha, evaluated after 13 days, read-out: damage to plant, Morningglory, Ivy-leaved (100=total damage to plant; 0=no damage to plant)): 0%
- pest or weed control at 15.625 g/ha ([5]; 15.625 g ai/ha, evaluated after 13 days (100=total damage to plant; 0=no damage to plant), read-out: Barnyardgrass damage rating): 0%
- pest or weed control at 62.5 g/ha ([5]; 62.5 g ai/ha, evaluated after 13 days, read-out: Barnyardgrass damage rating (100=total damage to plant; 0=no damage to plant)): 0%
- pest or weed control at 250 g/ha ([5]; 250 g ai/ha, evaluated after 13 days, read-out: damage to plant, Barnyardgrass (100=total damage to plant; 0=no damage to plant)): 0%
- pest or weed control at 15.625 g/ha ([6]; 15.625 g ai/ha, evaluated after 13 days (100=total damage to plant; 0=no damage to plant), read-out: Foxtail, Giant damage rating): 0%
- pest or weed control at 62.5 g/ha ([6]; 62.5 g ai/ha, evaluated after 13 days, read-out: Foxtail, Giant damage rating (100=total damage to plant; 0=no damage to plant)): 0%
- pest or weed control at 250 g/ha ([6]; 250 g ai/ha, evaluated after 13 days, read-out: damage to plant, Foxtail, Giant (100=total damage to plant; 0=no damage to plant)): 0%
- plant injury at 15.625 g/ha (corn (Zea mays) [7]; 15.625 g ai/ha, read-out: Corn damage rating (100=total damage to plant; 0=no damage to plant)): 0%
- plant injury at 62.5 g/ha (corn (Zea mays) [7]; 62.5 g ai/ha, 100=total damage to plant, 0=no damage to plant, read-out: plant damage rating, Corn): 0%
- plant injury at 250 g/ha (corn (Zea mays) [7]; 250 g ai/ha, read-out: Corn damage rating (100=total damage to plant; 0=no damage to plant)): 0%
- pest or weed control at 15.625 g/ha ([8]; 15.625 g ai/ha, read-out: Velvetleaf damage rating (100=total damage to plant; 0=no damage to plant)): 0%
- pest or weed control at 62.5 g/ha ([8]; 62.5 g ai/ha, 100=total damage to plant, 0=no damage to plant, read-out: plant damage rating, Velvetleaf): 0%
- pest or weed control at 250 g/ha ([8]; 250 g ai/ha, read-out: Velvetleaf damage rating (100=total damage to plant; 0=no damage to plant)): 0%
- pest or weed control at 15.625 g/ha ([9]; 15.625 g ai/ha, read-out: Pigweed, Redroot damage rating (100=total damage to plant; 0=no damage to plant)): 0%
- pest or weed control at 62.5 g/ha ([9]; 62.5 g ai/ha, 100=total damage to plant, 0=no damage to plant, read-out: plant damage rating, Pigweed, Redroot): 0%
- pest or weed control at 250 g/ha ([9]; 250 g ai/ha, read-out: Pigweed, Redroot damage rating (100=total damage to plant; 0=no damage to plant)): 0%
- pest or weed control at 15.625 g/ha ([10]; 15.625 g ai/ha, read-out: Morning-glory, Ivy-leaved damage rating (100=total damage to plant; 0=no damage to plant)): 0%
- pest or weed control at 62.5 g/ha ([10]; 62.5 g ai/ha, 100=total damage to plant, 0=no damage to plant, read-out: plant damage rating, Morningglory, Ivy-leaved): 0%
- pest or weed control at 250 g/ha ([10]; 250 g ai/ha, read-out: Morningglory, Ivy-leaved damage rating (100=total damage to plant; 0=no damage to plant)): 0%
- pest or weed control at 15.625 g/ha ([11]; 15.625 g ai/ha, read-out: Barnyard grass damage rating (100=total damage to plant; 0=no damage to plant)): 0%
- pest or weed control at 62.5 g/ha ([11]; 62.5 g ai/ha, 100=total damage to plant, 0=no damage to plant, read-out: plant damage rating, Barnyardgrass): 0%
- pest or weed control at 250 g/ha ([11]; 250 g ai/ha, read-out: Barnyardgrass damage rating (100=total damage to plant; 0=no damage to plant)): 0%
- pest or weed control at 15.625 g/ha ([12]; 15.625 g ai/ha, read-out: Foxtail, Giant damage rating (100=total damage to plant; 0=no damage to plant)): 0%
- pest or weed control at 62.5 g/ha ([12]; 62.5 g ai/ha, 100=total damage to plant, 0=no damage to plant, read-out: plant damage rating, Foxtail, Giant): 0%
- pest or weed control at 250 g/ha ([12]; 250 g ai/ha, read-out: Foxtail, Giant damage rating (100=total damage to plant; 0=no damage to plant)): 0%
